# Source: patent US6737383B1, “Herbicidal oxadiazolidines” (priority 1999, dated 2004)
# Tests used:
# [1] = test system: dallisgrass; test: Test D dallisgrass; assay type: in vivo, Paspalum dilatatum; conditions: Preemergence, 0 to 100 scale
# Procedure, shortened: (§1)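 Greenhouse pots, seeds in sandy loam; compounds formulated in non-phytotoxic solvent with surfactant; preemergence treatments went on the soil surface within one day of planting. Injury rated visually 14 to 21 days after application on a 0 (none) to 100 (complete control) scale.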
# [2] = test system: Green foxtail; test: Test D green foxtail; assay type: in vivo
# Procedure, shortened: as §1
# [3] = test system: purple nutsedge; test: Test B pre/postemergence purple nutsedge; assay type: in vivo, Cyperus rotundus
# Procedure, shortened: (§2)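 Test chemicals in a non-phytotoxic solvent mixture with surfactant were sprayed preemergence onto planted seeds and postemergence onto plants 2 to 18 cm tall (1- to 4-leaf stage). After twelve to sixteen days in a greenhouse, injury was visually rated against untreated controls from 0 (no effect) to 10 (complete control).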
# [4] = test system: blackgrass; test: Test B pre/postemergence blackgrass; assay type: in vivo, Alopecurus myosuroides
# Procedure, shortened: as §2
# [5] = test system: giant foxtail; test: Test B pre/postemergence giant foxtail; assay type: in vivo, Setaria faberii
# Procedure, shortened: as §2
# [6] = test system: wheat; test: Test B pre/postemergence wheat; assay type: in vivo, Triticum aestivum
# Procedure, shortened: as §2
# [7] = test system: Green foxtail; test: Test D green foxtail; assay type: in vivo; conditions: Preemergence, 0 to 100 scale
# Procedure, shortened: as §1
# [8] = test system: bermuda-grass; test: Test D bermudagrass; assay type: in vivo, Cynodon dactylon; conditions: Preemergence, 0 to 100 scale
# Procedure, shortened: as §1
# [9] = test system: Italian ryegrass; test: Test E Italian ryegrass; assay type: in vivo, Lolium multiflorum; conditions: Preemergence
# [10] = test system: winter wheat; test: Test E winter wheat; assay type: in vivo, Triticum aestivum; conditions: Preemergence
# [11] = test system: green foxtail; test: Test E green foxtail; assay type: in vivo, Setaria viridis; conditions: Preemergence
# [12] = test system: wild oat; test: Test E wild oat; assay type: in vivo, Avena fatua; conditions: Preemergence
# [13] = test system: winter wheat; test: Test E winter wheat; assay type: in vivo, Triticum aestivum; conditions: Postemergence
# Procedure, shortened: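 Postemergence: 60:40 sandy loam/greenhouse potting mix, 1- to 4-leaf stage. Formulation: solvent plus surfactant. Assessment: visual comparison with untreated controls at ~21–28 days.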
# [14] = test system: blackgrass; test: Test E blackgrass; assay type: in vivo, Alopecurus myosuroides; conditions: Preemergence
# [15] = test system: winter barley; test: Test E winter barley; assay type: in vivo, Hordeum vulgare; conditions: Preemergence
# [16] = Rate 16 g/ha, 0 no injury, 100 complete control
# [17] = Rate 32 g/ha, 0 no injury, 100 complete control
# [18] = Rate 64 g/ha, 0 no injury, 100 complete control
# [19] = Rate 125 g/ha, 0 no injury, 100 complete control
# [20] = Rate 64 g/ha, Preemergence; 0 to 100 scale, 0 no injury, 100 complete control
# [21] = Rate 125 g/ha, Preemergence; 0 to 100 scale, 0 no injury, 100 complete control
# [22] = Postemergence, Rate 62 g/ha, scale 0 to 10, 0 is no effect, 10 is complete control
# [23] = Postemergence, Rate 250 g/ha, scale 0 to 10, 0 no effect, 10 complete control
# [24] = Preemergence, Rate 62 g/ha, scale 0 to 10 (0 no effect, 10 complete control)
# [25] = Preemergence, Rate 125 g/ha, scale 0 to 10 (0 no effect, 10 complete control)
# [26] = Preemergence, Rate 250 g/ha, scale of 0 to 10 where 0 is no effect and 10 is complete control
# [27] = Preemergence, Rate 500 g/ha, scale 0 (no effect) to 10 (complete control)
# [28] = Rate 125 g/ha, Postemergence, scale 0 to 10, 0 no effect, 10 complete control
# [29] = Rate 500 g/ha, Postemergence, scale 0 to 10, 0 no effect, 10 complete control
# [30] = Rate 125 g/ha, 0 to 100 scale (0 no effect, 100 complete control)
# [31] = Rate 500 g/ha, 0 to 100 scale where 0 is no effect and 100 is complete control
# [32] = Preemergence, Rate 62 g/ha, scale 0 to 10, 0 is no effect, 10 is complete control
# [33] = Rate 500 g/ha, Postemergence, 0 to 10 scale (0 no effect, 10 complete control)
structure (smiles),measurement,setting,value
CC(C)N(C(=O)n1oc(=O)n(Cc2ccccc2)c1=O)c1ccc(F)cc1 [Compound 78],"Plant response rating, Dallisgrass",[1]; [16],0
same,"Plant response rating, Dallisgrass",[1]; [17],0
same,"Plant response rating, Dallisgrass",[1]; [18],75
same,"Plant response rating, Dallisgrass",[1]; [19],100
same,"Plant response rating, Dallisgrass",[1]; Rate 250 g/ha,100
same,"Plant response rating, Dallisgrass",[1]; Rate 500 g/ha,100
same,"Plant response rating, Green foxtail","[2]; Preemergence; Rate 16 g/ha; 0 to 100 scale, 0 no injury, 100 complete control",0
same,"Plant response rating, Green foxtail","[2]; Preemergence; Rate 32 g/ha; 0 to 100 scale, 0 no injury, 100 complete control",75
same,"Plant response rating, Green foxtail","[2]; Rate 16 g/ha; Preemergence; 0 to 100 scale, 0 no injury, 100 complete control",0
same,"Plant response rating, Green foxtail","[2]; Rate 32 g/ha; Preemergence; 0 to 100 scale, 0 no injury, 100 complete control",75
same,Green foxtail plant response rating,[2]; [20],85
same,"Plant response rating, Green foxtail",[2]; [20],85
same,Green foxtail plant response rating,[2]; [21],100
same,"Plant response rating, Green foxtail",[2]; [21],100
same,"Plant response rating, Green foxtail",[2]; Rate 250 g/ha; Preemergence; 0 to 100 scale,100
same,"Plant response rating, Green foxtail","[2]; Rate 500 g/ha, Preemergence; 0 to 100 scale",100
same,Nutsedge plant response rating,[3]; [22],0
same,Nutsedge plant response rating,[3]; [23],0
same,Nutsedge plant response rating,[3]; [24],0
same,"Plant response rating, Nutsedge",[3]; [25],0
same,"Plant response rating, Nutsedge",[3]; [26],0
same,Nutsedge plant response rating,[3]; [27],0
same,Nutsedge plant response rating,[3]; [28],0
same,Nutsedge plant response rating,[3]; [29],0
same,Blackgrass plant response rating,[4]; [22],0
same,Blackgrass plant response rating,[4]; [23],3
same,Blackgrass plant response rating,[4]; [24],2
same,"Plant response rating, Blackgrass",[4]; [25],4
same,"Plant response rating, Blackgrass",[4]; [26],4
same,Blackgrass plant response rating,[4]; [27],6
same,Blackgrass plant response rating,[4]; [28],3
same,Blackgrass plant response rating,[4]; [29],7
same,Giant foxtail plant response rating,[5]; [22],0
same,Giant foxtail plant response rating,[5]; [23],3
same,Giant foxtail plant response rating,[5]; [24],8
same,"Plant response rating, Giant foxtail",[5]; [25],8
same,"Plant response rating, Giant foxtail",[5]; [26],9
same,Giant foxtail plant response rating,[5]; [27],9
same,Giant foxtail plant response rating,[5]; [28],3
same,Giant foxtail plant response rating,[5]; [29],4
same,Wheat plant response rating,[6]; [22],0
same,Wheat plant response rating,[6]; [23],0
same,Wheat plant response rating,[6]; [24],0
same,"Plant response rating, Wheat",[6]; [25],0
same,"Plant response rating, Wheat",[6]; [26],3
same,Wheat plant response rating,[6]; [27],3
same,Wheat plant response rating,[6]; [28],0
same,Wheat plant response rating,[6]; [29],0
same,"Plant response rating, Green foxtail",[7]; Rate 250 g/ha,100
same,"Plant response rating, Green foxtail",[7]; Rate 500 g/ha,100
same,"Plant response rating, Bermudagrass",[8]; [16],75
same,"Plant response rating, Bermudagrass",[8]; [17],85
same,"Plant response rating, Bermudagrass",[8]; [18],90
same,"Plant response rating, Bermudagrass",[8]; [19],98
same,"Plant response rating, Bermudagrass",[8]; Rate 250 g/ha,100
same,"Plant response rating, Bermudagrass",[8]; Rate 500 g/ha,100
CC(C)N(C(=O)n1oc(=O)n(-c2ccccc2)c1=O)c1ccc(F)cc1 [Compound 38],"Plant response rating, I. Ryegrass",[9]; [30],0
same,"Plant response rating, I. Ryegrass","[9]; Rate 250 g/ha, 0 to 100 scale",20
same,"Plant response rating, I. Ryegrass",[9]; [31],80
same,"Plant response rating, Wheat (winter)",[10]; [30],10
same,"Plant response rating, Wheat (winter)","[10]; Rate 250 g/ha, 0 to 100 scale",0
same,"Plant response rating, Wheat (winter)",[10]; [31],10
same,Nutsedge plant response rating,[3]; [22],0
same,Nutsedge plant response rating,[3]; [23],0
same,"Plant response rating, Nutsedge",[3]; [32],0
same,"Plant response rating, Nutsedge",[3]; [25],0
same,"Plant response rating, Nutsedge",[3]; [26],0
same,Nutsedge plant response rating,[3]; [27],0
same,Nutsedge plant response rating,[3]; [28],0
same,Nutsedge plant response rating,[3]; [33],0
same,"Plant response rating, Green foxtail",[11]; [30],80
same,"Plant response rating, Green foxtail","[11]; Rate 250 g/ha, 0 to 100 scale",90
same,"Plant response rating, Green foxtail",[11]; [31],100
same,Blackgrass plant response rating,[4]; [22],0
same,Blackgrass plant response rating,[4]; [23],7
same,"Plant response rating, Blackgrass",[4]; [32],4
same,"Plant response rating, Blackgrass",[4]; [25],6
same,"Plant response rating, Blackgrass",[4]; [26],10
same,Blackgrass plant response rating,[4]; [27],10
same,Blackgrass plant response rating,[4]; [28],3
same,Blackgrass plant response rating,[4]; [33],8
same,"Plant response rating, Wild oat",[12]; [30],0
same,"Plant response rating, Wild oat",[12]; [31],20
same,"Plant response rating, Wheat (winter)","[13]; Rate 125 g/ha, 0 to 100 scale",10
same,"Plant response rating, Wheat (winter)","[13]; Rate 250 g/ha, 0 to 100 scale (0 no effect, 100 complete control)",10
same,"Plant response rating, Wheat (winter)","[13]; Rate 500 g/ha, 0 to 100 scale, 0 no effect, 100 complete control",10
same,"Plant response rating, Blackgrass",[14]; [30],25
same,"Plant response rating, Blackgrass","[14]; Rate 250 g/ha, 0 to 100 scale",45
same,"Plant response rating, Blackgrass",[14]; [31],35
same,"Plant response rating, Barley (winter)",[15]; [30],0
same,"Plant response rating, Barley (winter)","[15]; Rate 250 g/ha, 0 to 100 scale",0
same,"Plant response rating, Barley (winter)",[15]; [31],0
same,Giant foxtail plant response rating,[5]; [22],0
same,Giant foxtail plant response rating,[5]; [23],4
same,"Plant response rating, Giant foxtail",[5]; [32],10
same,"Plant response rating, Giant foxtail",[5]; [25],10
same,"Plant response rating, Giant foxtail",[5]; [26],10
same,Giant foxtail plant response rating,[5]; [27],10
same,Giant foxtail plant response rating,[5]; [28],2
same,Giant foxtail plant response rating,[5]; [33],8
same,Wheat plant response rating,[6]; [22],0
same,Wheat plant response rating,[6]; [23],0
same,"Plant response rating, Wheat",[6]; [32],0
same,"Plant response rating, Wheat",[6]; [25],0
same,"Plant response rating, Wheat",[6]; [26],0
same,Wheat plant response rating,[6]; [27],0
same,Wheat plant response rating,[6]; [28],0
